Activity calls are given as the source filed them.
How the values were obtained:
[1] = system: H4; test: Luminescence Cell-Based Dose Response HTS to Identify Activators of 5'UTR Stem-Loop Driven Prion Protein mRNA Translation in H4 Neuroglioblastoma Cells. [Related pubchem assays: 1829 (Project Summary), 1814 (Primary HTS)]; format: functional; conditions: Homo sapiens
[2] = cells; format: functional, cell-based
[3] = system: HEK293; test: NOD1 signaling inhibitors, primary screen, cell-based, luminescence, uHTS (AID 1578); format: functional; conditions: Homo sapiens
[4] = Luminescence Cell-Based Dose Retest to Confirm Inhibitors of Cancer Stem Cells. [Related pubchem assays (depositor defined):AID2717, AID2721]; format: functional; conditions: Homo sapiens
[5] = system: Vero; test: cells; format: functional; conditions: Chlorocebus sabaeus
[6] = system: HEK293; test: cells; format: functional, cell-based; conditions: Homo sapiens
[7] = cells; format: functional, cell-based; remark: listed apart in the source
[8] = Luminescence Cell-Based Dose Confirmation HTS to Identify Activators of 5'UTR Stem-Loop Driven Alpha-Synuclein mRNA Translation in H4 Neuroglioblastoma Cells. [Related pubchem assays: 1829 (Project Summary), 1814 (Primary HTS)]; format: functional
[9] = system: HEK293; test: cells; format: functional, cell-based; conditions: Homo sapiens; remark: listed apart in the source
[10] = system: HEK293; test: NOD2 signaling inhibitors in MDP-stimulated cells, cell-based, uHTS, luminescence (AID 2001); format: functional; conditions: Homo sapiens
[11] = Luminescence Cell-Based Dose Response HTS to Identify Activators of Luciferase Translation or Activity in H4 […] Cells. [Related pubchem assays: 1829 (Project Summary), 1814 (Primary HTS)]; format: functional
[12] = system: Vero; test: cells; format: functional, cell-based; conditions: Chlorocebus sabaeus
[13] = HEp-2 cell cytotoxicity, dose response, cytotoxicity control for RSV inhibitor project, HTS (AID 2410); format: functional; conditions: human respiratory syncytial virus
[14] = target: T1, Endoribonuclease toxin MazF (Escherichia coli K-12, UniProt P0AE70); test: fluorescent RNA oligo signal without MazF, dose response, counter-screen for MazEF activator project, biochemical, fluorescence, single-stranded RNase substrate (AID 588502); format: functional
T1 sequence (P0AE70 whole entry): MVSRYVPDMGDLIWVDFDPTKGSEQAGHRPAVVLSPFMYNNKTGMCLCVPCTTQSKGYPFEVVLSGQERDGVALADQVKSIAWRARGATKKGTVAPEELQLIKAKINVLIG

[15] = target: T1, Endoribonuclease toxin MazF; test: MazF toxin RNase activators, dose response, biochemical, fluorescence, single-stranded RNA substrate, uHTS hits (AID 588481); format: functional
[16] = target: T2, Short transient receptor potential channel 4 (Mus musculus, UniProt Q9QUQ5); test: mouse TRPC4 channel activators, dose response, cell-based, HEK293 TRPC4/mu-opioid, Fluo-4 calcium (AID 434937); format: functional
T2 sequence (Q9QUQ5 whole entry): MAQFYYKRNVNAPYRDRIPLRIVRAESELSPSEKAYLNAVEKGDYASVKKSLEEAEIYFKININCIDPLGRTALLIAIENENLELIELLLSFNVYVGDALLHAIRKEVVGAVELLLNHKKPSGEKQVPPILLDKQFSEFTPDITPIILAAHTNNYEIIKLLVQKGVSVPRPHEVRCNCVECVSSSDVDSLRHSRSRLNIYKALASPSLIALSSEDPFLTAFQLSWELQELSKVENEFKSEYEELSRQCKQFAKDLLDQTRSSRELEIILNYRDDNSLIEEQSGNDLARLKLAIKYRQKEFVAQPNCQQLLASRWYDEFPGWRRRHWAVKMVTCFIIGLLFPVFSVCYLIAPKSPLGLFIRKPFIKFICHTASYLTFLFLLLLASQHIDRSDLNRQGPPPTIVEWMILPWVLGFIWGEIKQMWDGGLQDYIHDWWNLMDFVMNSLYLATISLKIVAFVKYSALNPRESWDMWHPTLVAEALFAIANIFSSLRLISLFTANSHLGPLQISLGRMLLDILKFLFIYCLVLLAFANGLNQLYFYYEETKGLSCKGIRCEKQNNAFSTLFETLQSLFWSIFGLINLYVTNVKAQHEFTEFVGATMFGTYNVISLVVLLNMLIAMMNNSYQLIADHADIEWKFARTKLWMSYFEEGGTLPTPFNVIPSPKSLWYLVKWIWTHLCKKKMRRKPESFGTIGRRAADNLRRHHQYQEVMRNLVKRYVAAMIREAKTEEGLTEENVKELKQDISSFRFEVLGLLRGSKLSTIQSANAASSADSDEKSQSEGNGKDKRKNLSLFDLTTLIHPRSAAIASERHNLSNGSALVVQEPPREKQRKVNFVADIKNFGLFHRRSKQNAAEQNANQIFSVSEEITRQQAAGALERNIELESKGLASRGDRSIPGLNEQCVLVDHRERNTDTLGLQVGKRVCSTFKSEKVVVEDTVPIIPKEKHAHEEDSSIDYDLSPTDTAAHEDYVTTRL

[17] = target: Glyceraldehyde-3-phosphate dehydrogenase (Homo sapiens, UniProt P04406)
[18] = target: T3, Alkaline phosphatase, tissue-nonspecific isozyme (Homo sapiens, UniProt P05186); test: human TNAP enzyme inhibitors, SAR follow-up, biochemical, luminescent, dose response (AID 1056)
T3 sequence (P05186 whole entry): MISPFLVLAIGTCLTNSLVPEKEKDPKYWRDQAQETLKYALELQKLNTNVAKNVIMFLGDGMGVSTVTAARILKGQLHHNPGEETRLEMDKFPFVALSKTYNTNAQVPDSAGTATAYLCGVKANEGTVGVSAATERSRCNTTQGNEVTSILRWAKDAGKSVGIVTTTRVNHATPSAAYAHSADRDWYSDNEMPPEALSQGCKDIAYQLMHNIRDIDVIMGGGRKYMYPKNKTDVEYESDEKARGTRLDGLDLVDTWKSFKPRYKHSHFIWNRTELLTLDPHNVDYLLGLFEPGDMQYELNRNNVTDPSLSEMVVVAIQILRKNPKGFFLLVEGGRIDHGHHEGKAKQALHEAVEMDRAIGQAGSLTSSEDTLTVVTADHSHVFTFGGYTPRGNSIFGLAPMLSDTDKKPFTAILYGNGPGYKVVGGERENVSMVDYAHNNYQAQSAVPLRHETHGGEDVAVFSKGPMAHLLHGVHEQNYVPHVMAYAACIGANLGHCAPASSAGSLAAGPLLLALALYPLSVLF

[19] = microbe, parasite or virus in culture; format: functional; conditions: Mycobacterium tuberculosis
[20] = target: Heat shock protein HSP 90-alpha (Homo sapiens, UniProt P07900); format: functional, organism-based
[21] = cells
[22] = cytotoxicity toward NIH3T3 fibroblasts, dose response, counter-screen, cell-based, ATP luminescence, mouse fibroblasts (AID 2010); format: functional;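 note: cells exposed to compound for about 90 hours before reading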
[23] = inhibitors of intracellular T. cruzi replication, confirmation, NIH3T3 host cells, beta-gal luminescence (AID 2044); format: functional, cell-based;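 note: intracellular parasites grown in NIH/3T3 mouse fibroblasts as host cells; luminescent beta-galactosidase reporter signal from transgenic T. cruzi replicating inside host cells; inhibitors lower the luminescence signal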
[24] = target: DNA dC->dU-editing enzyme APOBEC-3A (Homo sapiens, UniProt P31941); test: Dose Response confirmation of small molecule APOBEC3A DNA Deaminase Inhibitors via a fluorescence-based single-stranded DNA deaminase assay. [Related pubchem assays (depositor defined):AID493011, AID493024]; format: functional
[25] = NIH-3T3 fibroblast cytotoxicity, dose response, cytotoxicity control, cell-based, fluorescence, Alamar Blue, secondary assay (AID 2327); format: functional;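 note: NIH-3T3 mouse fibroblasts cultured with fluconazole at 8 µg/mL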
[26] = target: DNA dC->dU-editing enzyme APOBEC-3G (Homo sapiens, UniProt Q9HC16); format: functional;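 note: Dose-response counterscreen measuring inhibition of APOBEC3G DNA deaminase activity, run while confirming APOBEC3A inhibitors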
[27] = target: Trypsin (Sus scrofa, UniProt P00761); test: porcine trypsin inhibitors, dose response, selectivity assay for Rce1 protease inhibitor project, biochemical, quenched peptide fluorescence, cherry-pick (AID 488789)
[28] = target: T4, CAAX prenyl protease 2 (Homo sapiens, UniProt Q9Y256); test: human Rce1 protease inhibitors, dose response, biochemical, yeast membranes, quenched-peptide fluorescence, cherry-pick (AID 588849)
T4 sequence (Q9Y256 whole entry): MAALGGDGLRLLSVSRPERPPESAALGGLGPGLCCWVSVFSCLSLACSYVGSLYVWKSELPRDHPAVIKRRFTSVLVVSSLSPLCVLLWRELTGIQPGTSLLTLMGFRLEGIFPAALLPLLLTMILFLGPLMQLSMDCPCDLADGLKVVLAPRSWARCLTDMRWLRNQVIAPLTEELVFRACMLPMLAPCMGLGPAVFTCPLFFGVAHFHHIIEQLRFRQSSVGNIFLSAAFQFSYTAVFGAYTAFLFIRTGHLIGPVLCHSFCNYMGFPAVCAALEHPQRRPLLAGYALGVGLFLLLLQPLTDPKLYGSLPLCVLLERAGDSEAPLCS

DNA dC->dU-editing enzyme APOBEC-3G, sequence (Q9HC16 whole entry): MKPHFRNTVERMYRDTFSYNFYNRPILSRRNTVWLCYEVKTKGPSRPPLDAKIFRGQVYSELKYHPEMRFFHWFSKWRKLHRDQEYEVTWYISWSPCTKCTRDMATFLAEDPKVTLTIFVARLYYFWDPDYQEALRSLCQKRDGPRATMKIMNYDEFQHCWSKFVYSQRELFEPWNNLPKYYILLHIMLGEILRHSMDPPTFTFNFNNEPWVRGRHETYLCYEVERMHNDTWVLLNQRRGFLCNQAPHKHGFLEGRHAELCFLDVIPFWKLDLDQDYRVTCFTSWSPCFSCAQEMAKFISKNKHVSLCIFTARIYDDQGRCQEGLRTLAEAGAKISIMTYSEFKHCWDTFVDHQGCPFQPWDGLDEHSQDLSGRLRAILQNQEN
Glyceraldehyde-3-phosphate dehydrogenase, sequence (P04406 whole entry): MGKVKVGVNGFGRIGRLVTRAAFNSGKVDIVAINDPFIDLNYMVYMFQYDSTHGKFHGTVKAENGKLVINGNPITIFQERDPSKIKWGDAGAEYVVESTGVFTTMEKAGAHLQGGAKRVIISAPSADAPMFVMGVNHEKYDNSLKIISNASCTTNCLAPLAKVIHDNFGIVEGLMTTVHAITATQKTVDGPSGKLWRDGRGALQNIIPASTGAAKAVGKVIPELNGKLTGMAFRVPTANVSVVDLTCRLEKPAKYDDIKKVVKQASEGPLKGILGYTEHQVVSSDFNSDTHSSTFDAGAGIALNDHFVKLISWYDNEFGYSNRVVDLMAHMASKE
DNA dC->dU-editing enzyme APOBEC-3A, sequence (P31941 whole entry): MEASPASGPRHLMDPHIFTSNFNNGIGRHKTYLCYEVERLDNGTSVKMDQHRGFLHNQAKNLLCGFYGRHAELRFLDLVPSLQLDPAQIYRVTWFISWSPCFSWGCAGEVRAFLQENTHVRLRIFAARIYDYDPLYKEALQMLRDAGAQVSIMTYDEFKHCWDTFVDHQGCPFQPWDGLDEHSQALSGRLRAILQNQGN
Trypsin, sequence (P00761 whole entry): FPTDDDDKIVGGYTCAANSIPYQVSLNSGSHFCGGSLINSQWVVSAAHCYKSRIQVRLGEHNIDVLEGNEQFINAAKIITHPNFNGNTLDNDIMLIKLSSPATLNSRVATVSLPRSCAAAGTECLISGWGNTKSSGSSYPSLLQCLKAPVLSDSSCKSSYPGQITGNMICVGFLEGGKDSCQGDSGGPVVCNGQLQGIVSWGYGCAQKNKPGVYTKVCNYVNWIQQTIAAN

For `CCOC(=O)C(=Cc1ccc(OCc2ccc([N+](=O)[O-])cc2)c(OC)c1)C(=O)OCC`, the EC50 [1] was 0.246 µM (active), the EC50 [2] was > 350 µM (not active) and the EC50 [3] was 10.6 µM (active). The AC50 [4] was 1.79 µM (active), the CC50 [5] was 9.93 µM (active) and the IC50 [6] was 2.07 µM (active). The EC50 [7] was 70 µM (active), the EC50 [8] was 0.171 µM (active) and the IC50 [9] was 12.8 µM (active). The IC50 [10] was 5.14 µM (active), the EC50 [11] was 1.18 µM (active) and the IC50 [12] was > 25 µM (active).

For `Cc1ccc([N+](=O)[O-])cc1N/C=C1\CCCCC1=O`, the CC50 [13] was 18.4 µM (active), the EC50 [14] was > 99 µM (inactive) and the EC50 [15] was > 99 µM (inactive).

For `O=C(CC1C(=O)NCCN1Cc1ccccc1C(F)(F)F)NCCc1ccccn1` (centres undefined), the EC50 [16] was 6.68 µM (active).

In the case of `Cc1ccc(S(=O)(=O)NN)c(C)c1N1CCCC1=O`, the EC50 [14] is reported as 10.6 µM (active) and the EC50 [15] is reported as 58.2 µM (inactive).

In the case of `COC(=O)c1cc(-c2ccc(C)cc2)[nH]n1`, the IC50 [17] is reported as > 100 µM (not active) and the IC50 [18] is reported as 3.43 µM (active).

For `O=C(Nc1nnc(-c2ccccc2Cl)o1)c1nc2ccccc2s1`, the CC50 [19] was > 40 µM (active) and the EC50 [16] was 4.73 µM (active).

With `C#CCSc1nnc(N)[nH]1` the IC50 [17] was > 100 µM (not active) and the IC50 [18] was > 100 µM (inactive).

In the case of `CCOC(=O)C(=Cc1ccc(-n2cncn2)cc1)C(=O)OCC`, the EC50 [3] is reported as > 20 µM (inactive), the AC50 [4] is reported as 3.47 µM (active) and the IC50 [6] is reported as 5.19 µM (active). For the same compound, the IC50 [9] was > 20 µM (inactive), the IC50 [10] was 10.9 µM (inactive) and the AC50 [20] was 7.37 µM (active).

For `CN(C)CCCN(C(=O)c1ccc(S(=O)(=O)N2CCOCC2)cc1)c1nc2ccc(F)cc2s1`, the EC50 [21] was 0.02 µM (active), the EC50 [16] was 9.44 µM (active) and the EC50 [22] was > 30 µM (not active). For the same compound, the EC50 [23] was < 0.1 µM (active).

For `CCOc1cc(/C=C(\C#N)C(=O)NCC2CCCO2)ccc1OCC(N)=O` (centres undefined), the IC50 [24] was 8.13 µM (active), the EC50 [25] was > 160 µM (inactive) and the IC50 [26] was 11 µM (active).

In the case of `Nc1ccc2nc(SCC(=O)Nc3ccc(N4CCOCC4)c(Cl)c3)sc2c1`, the EC50 [1] is reported as 49.1 µM (active), the IC50 [24] is reported as 3.65 µM (active) and the EC50 [8] is reported as 14.9 µM (active). The EC50 [11] was 9.41 µM (active) and the IC50 [26] was 8.08 µM (active).

With `Nc1ccccc1Oc1ccc2ccccc2c1` the AC50 [27] was 6.89 µM (active) and the AC50 [28] was 5.84 µM (active).
